These results are taken from US8563714B2, “Bridged spiro [2.4] heptane derivatives as ALX receptor and/or FPRL2 agonists” (Actelion Pharmaceuticals Ltd., priority 2009, dated 2013).

Bounds are passed on as bounds.

One assay deals with T1, human ALX receptor (Homo sapiens, UniProt P25090).
T1 construct: expressed in transfected cells; host or cells: HEK293 (HEK293-hALXR-Gα16)
T1 sequence (P25090 1-351): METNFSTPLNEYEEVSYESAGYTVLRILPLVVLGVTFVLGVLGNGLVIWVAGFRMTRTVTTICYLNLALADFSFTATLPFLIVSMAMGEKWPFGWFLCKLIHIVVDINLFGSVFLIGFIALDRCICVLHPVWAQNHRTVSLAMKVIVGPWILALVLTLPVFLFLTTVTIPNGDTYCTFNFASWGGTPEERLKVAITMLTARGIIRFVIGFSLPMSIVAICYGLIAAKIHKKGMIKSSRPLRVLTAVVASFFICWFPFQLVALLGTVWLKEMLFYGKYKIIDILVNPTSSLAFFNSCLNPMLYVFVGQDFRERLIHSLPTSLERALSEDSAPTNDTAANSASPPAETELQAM
The experiment in a line: Intracellular calcium measurements (FLIPR), agonistic activity in HEK293-hALXR-Gα16 cells. It is filed as cell-based. To be noted: Fluo-4 calcium FLIPR, normalized to WKYMVm 10 nM. The procedure, abridged: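 HEK293 cells expressing hALXR and Gα16 were loaded with 1 μM Fluo-4 AM and 20 mM HEPES for 60 min at 37°C, then exposed to serially diluted compound. FLIPR fluorescence was read at ex 488/em 540 nm. Baseline-subtracted peak responses were normalized to 10 nM WKYMVm.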
On the technique in general: A change in cytosolic calcium serves as a functional read-out for many receptors and channels.

The next assay deals with T2, human FPRL2 (Homo sapiens, UniProt P25089).
T2 construct: expressed in transfected cells; host or cells: HEK293 (HEK293-hFPRL2-Gα16)
T2 sequence (P25089 1-353): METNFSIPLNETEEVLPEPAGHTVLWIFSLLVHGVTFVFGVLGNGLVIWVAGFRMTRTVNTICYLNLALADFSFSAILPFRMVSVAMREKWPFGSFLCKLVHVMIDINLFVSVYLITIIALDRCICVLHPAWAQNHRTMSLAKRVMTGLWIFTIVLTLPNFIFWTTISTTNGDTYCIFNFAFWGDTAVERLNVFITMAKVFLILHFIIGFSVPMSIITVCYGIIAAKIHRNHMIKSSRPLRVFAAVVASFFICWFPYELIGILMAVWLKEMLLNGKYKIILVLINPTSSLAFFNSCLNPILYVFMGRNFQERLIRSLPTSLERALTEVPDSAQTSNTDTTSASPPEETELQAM
The experiment in a line: Intracellular calcium measurements (FLIPR), agonistic activity in HEK293-hFPRL2-Gα16 cells. The class given is cell-based. The conditions noted are these: Fluo-4 calcium FLIPR, normalized to GLY14-Humanin 100 nM. The procedure, abridged: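 Peak values after baseline subtraction are expressed relative to 100 nM Gly14-Humanin; compounds diluted in assay buffer from 10 mM DMSO stocks.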

On to `NCc1cccc(CNC(=O)[C@H]2[C@H](C(=O)NCc3ccc(Br)cc3)[C@@H]3C=C[C@H]2C32CC2)c1` (racemic) [Example 308, (5R*)—N^5-(4-Bromophenyl-methyl)-(6R*)—N^6-(3-(aminomethyl)phenyl-methyl)-(4S*,7R*)-[4,7-ethenylene-spiro[2.4]heptane]-5,6-dicarboxamide], for which the EC50 (as a rule, the concentration at which the effect is half-maximal) is 59 nM on human ALX receptor and 493 nM at human FPRL2.
For `O=C(NCCF)[C@H]1[C@H](C(=O)NCc2ccc(Br)cc2)[C@@H]2C=C[C@H]1C21CC1` (racemic) [Example 271, (5R*)—N^5-(4-Bromophenyl-methyl)-(6R*)—N^6-(2-fluoroethyl)-(4S*,7R*)-[4,7-ethenylene-spiro[2.4]heptane]-5,6-dicarboxamide] the same measures were 673 nM and above 25000 nM.
Take `O=C(NCCF)[C@H]1[C@H](C(=O)Nc2ccc(Br)cc2)[C@@H]2C=C[C@H]1C21CC1` (racemic) [Example 20, (5R*)—N^5-(4-Bromophenyl)-(6R*)—N^6-(2-fluoro-ethyl)-(4S*,7R*)-[4,7-ethenylene-spiro[2.4]heptane]-5,6-dicarboxamide]: the EC50 at human ALX receptor was found to be 2.7 nM; on human FPRL2, 2860 nM.
As to `O=C(NCCN1CCCC1)[C@H]1[C@H](C(=O)Nc2ccc(Br)cc2)[C@@H]2C=C[C@H]1C21CC1` (racemic) [Example 48, (5R*)—N^5-(4-Bromophenyl)-(6R*)—N^6-(2-pyrrolidin-1-yl-ethyl)-(4S*,7R*)-[4,7-ethenylene-spiro[2.4]heptane]-5,6-dicarboxamide], the concentration for a half-maximal effect (EC50) worked out at 12 nM on human ALX receptor and 1380 nM at human FPRL2.
On to `NC(=O)CCNC(=O)[C@H]1[C@H](C(=O)Nc2ccc(Br)nc2)[C@@H]2CC[C@H]1C21CC1` [Example 278, (5R)—N^5-(2-Bromopyrid-5-yl)-(6R)—N^6-(3-amino-3-oxopropyl)-(4S,7R)-[4,7-ethylene-spiro[2.4]heptane]-5,6-dicarboxamide], for which the figures for the EC50 at human ALX receptor and at human FPRL2 were 7.9 nM and above 25000 nM, respectively.
As to `NC(=O)C1CCCCC1NC(=O)C1C(C(=O)Nc2ccc(Br)cc2)C2C=CC1C21CC1` (mixture of isomers) [Example 81, (5R*)—N^5-(4-Bromophenyl)-(6R*)—N^6-(2-carbamoyl-cyclohexyl)-(4S*,7R*)-[4,7-ethenylene-spiro[2.4]heptane]-5,6-dicarboxamide], the EC50 at human ALX receptor stood at 100 nM; on human FPRL2, 8730 nM.
With `O=C(NCC1CCCO1)C1C(C(=O)Nc2ccc(Br)cc2)C2C=CC1C21CC1` (mixture of isomers) [Example 22, (5R*)—N^5-(4-Bromophenyl)-(6R*)—N^6-(2-tetrahydrofuranyl-methyl)-(4S*,7R*)-[4,7-ethenylene-spiro[2.4]heptane]-5,6-dicarboxamide], the values for the EC50 on human ALX receptor and at human FPRL2 were 3.2 nM and 4640 nM, respectively.
For `O=C(NCCCCN1CCCC1)[C@H]1[C@H](C(=O)NCc2ccc(F)c(Br)c2)[C@@H]2C=C[C@H]1C21CC1` (racemic) [Example 354, (5R*)—N^5-(3-Bromo-4-fluorophenyl-methyl)-(6R*)—N^6-(4-pyrrolidino-butyl)-(4S*,7R*)-[4,7-ethenylene-spiro[2.4]heptane]-5,6-dicarboxamide] the same measures were 7410 nM and 223 nM.
Take `O=C(NCCCCN1CCCC1)[C@H]1[C@H](C(=O)Nc2cccc3nonc23)[C@@H]2C=C[C@H]1C21CC1` (racemic) [Example 151, (5R*)—N^5-(Benzo[2,1,3]oxadiazol-4-yl)-(6R*)—N^6-(4-pyrrolidin-1-yl-butyl)-(4S*,7R*)-[4,7-ethenylene-spiro[2.4]heptane]-5,6-dicarboxamide]: the EC50 came to 9120 nM at human ALX receptor and 714 nM at human FPRL2.
Take `CC(=O)c1csc(CNC(=O)[C@H]2[C@H](C(=O)NCC(C)C)[C@H]3C=C[C@@H]2C32CC2)n1` (racemic) [Example 244, (5R*)—N^5-(4-Acetyl-thiazol-2-yl-methyl)-(6R*)—N^6-(isobutyl)-(4S*,7R*)-[4,7-ethenylene-spiro[2.4]heptane]-5,6-dicarboxamide]: the EC50 is 369 nM on human ALX receptor and above 25000 nM on human FPRL2.
For `O=C(NC1CCCCC1)[C@H]1[C@H](C(=O)Nc2ccc(Br)cc2)[C@@H]2C=C[C@H]1C21CC1` (racemic) [Example 93, (5R*)—N^5-(4-Bromophenyl)-(6R*)—N^6-(cyclohexyl)-(4S*,7R*)-[4,7-ethenylene-spiro[2.4]heptane]-5,6-dicarboxamide] the same measures were 216 nM and above 25000 nM.
In the case of `COC(=O)CCCC(=O)NC[C@H]1[C@H](C(=O)Nc2ccc(Br)cc2)[C@@H]2C=C[C@H]1C21CC1` (racemic) [Example 166, (5R*)—N^5-(4-Bromo-phenyl)-(6R*)-6-{[(4-methoxycarbonyl-butanoyl)-amino]-methyl}-(4S*,7R*)-[4,7-ethenylene-spiro[2.4]heptane]-5-carboxamide], the results for the EC50 on human ALX receptor and on human FPRL2 were 88 nM and 4710 nM, respectively.
For `O=C(NCCn1cncn1)[C@H]1[C@H](C(=O)Nc2ccc(Br)cc2)[C@@H]2C=C[C@H]1C21CC1` (racemic) [Example 49, (5R*)—N^5-(4-Bromophenyl)-(6R*)—N^6-(2-1H-[1,2,4]-triazol-1-yl-ethyl)-(4S*,7R*)-[4,7-ethenylene-spiro[2.4]heptane]-5,6-dicarboxamide], the concentration giving a half-maximal response (EC50) stood at 12 nM on human ALX receptor and 1510 nM on human FPRL2.
For `COc1ccc(CCNC(=O)[C@H]2[C@H](C(=O)NCCCCN3CCCC3)[C@H]3C=C[C@@H]2C32CC2)cc1OC` (racemic) [Example 377, (5R*)—N^5-(2-(3,4-Dimethoxyphenyl)ethyl)-(6R*)—N^6-(4-pyrrolidino-butyl)-(4S*,7R*)-[4,7-ethenylene-spiro[2.4]heptane]-5,6-dicarboxamide] the same measures were above 25000 nM and 417 nM.
With `COc1ccc(CNC(=O)[C@H]2[C@H](C(=O)NCCCCN3CCCC3)[C@H]3C=C[C@@H]2C32CC2)c(F)c1F` (racemic) [Example 227, (5R*)—N^5-(2,3-Difluoro-4-methoxy-phenyl-methyl)-(6R*)—N^6-(4-pyrrolidin-1-yl-butyl)-(4S*,7R*)-[4,7-ethenylene-spiro[2.4]heptane]-5,6-dicarboxamide], the EC50 at human ALX receptor was 290 nM; at human FPRL2 it was 89 nM.
Regarding `O=C(NCCCCN1CCCC1)[C@H]1[C@H](C(=O)NCCc2ccccc2)[C@@H]2C=C[C@H]1C21CC1` (racemic) [Example 139, (5R*)—N^5-(2-Phenyl-ethyl)-(6R*)—N^6-(4-pyrrolidin-1-yl-butyl)-(4S*,7R*)-[4,7-ethenylene-spiro[2.4]heptane]-5,6-dicarboxamide], the EC50 on human ALX receptor worked out at 731 nM; on human FPRL2 it was 152 nM.
Take `COC(=O)CCNC(=O)[C@H]1[C@H](C(=O)NCCCCN2CCCC2)[C@H]2C=C[C@@H]1C21CC1` (racemic) [Example 124, (5R*)—N^5-(2-Methoxycarbonyl-ethyl)-(6R*)—N^6-(4-pyrrolidin-1-yl-butyl)-(4S*,7R*)-[4,7-ethenylene-spiro[2.4]heptane]-5,6-dicarboxamide]: the EC50 worked out at 52 nM on human ALX receptor and 1150 nM on human FPRL2.
As for `NC(=O)CCCNC(=O)[C@H]1[C@H](C(=O)Nc2ccc(Br)cc2)[C@@H]2C=C[C@H]1C21CC1` (racemic) [Example 205, (5R*)—N^5-(4-Bromophenyl)-(6R*)—N^6-(4-amino-4-oxobutyl)-(4S*,7R*)-[4,7-ethenylene-spiro[2.4]heptane]-5,6-dicarboxamide], the results for the EC50 on human ALX receptor and on human FPRL2 were 7.3 nM and 4780 nM, respectively.
On to `CC(=O)c1nc(CNC(=O)[C@H]2[C@H](C(=O)NCCCCN3CCCC3)[C@H]3C=C[C@@H]2C32CC2)co1` (racemic) [Example 235, (5R*)—N^5-(2-Acetyl-oxazol-4-yl-methyl)-(6R*)—N^6-(4-pyrrolidin-1-yl-butyl)-(4S*,7R*)-[4,7-ethenylene-spiro[2.4]heptane]-5,6-dicarboxamide], for which the EC50 was 153 nM at human ALX receptor and 181 nM at human FPRL2.
For `O=C(NC1CCNCC1)[C@H]1[C@H](C(=O)Nc2ncc(Br)s2)[C@@H]2C=C[C@H]1C21CC1` [Example 323, (5R)—N^5-(5-Bromo-thiazol-2-yl)-(6R)—N^6-(piperidin-4-yl)-(4S,7R)-[4,7-ethenylene-spiro[2.4]heptane]-5,6-dicarboxamide] the same measures were 17 nM and 4690 nM.
